# According to patent publication US20010019716A1 (priority 1996, published 2001):
# Columns and labels:
# [1] = system: Mycobacterium tuberculosis; conditions: in vivo; cited from earlier work
# HeLa cells [2] = format: cell-based
# HeLa cells [3] = format: cell-based; remark: listed apart in the source
Compound,effective in preventing the disease [1],concentration of peptide at which internalization of the beads was achieved (as low as) (HeLa cells [2]) [nM],concentration sufficient to permit uptake of the spheres by Hela cells (HeLa cells [2]),entry of coated beads into HeLa cells compared with whole Mcep (SEQ. ID. No. 4) (HeLa cells [2]),"uptake of coated 0.3 μm latex microspheres, transmission electron microscopy (HeLa cells [2])",blocking of uptake of Mcep-coated beads (HeLa cells [3])
NNC(=O)c1ccncc1 [isoniazid],about 90%,–,–,–,–,–
TKRRITPKDVIDVRSVTTEINT [Inv3],–,25,nanomolar concentration,as efficiently as the whole Mcep,uptake,competitively blocked
